Data published in patent publication EP4759807A1, “PROTEOLYSIS TARGETING CHIMERA COMPOUND FOR DEGRADING IRAK4 AND USE THEREOF” (Shenzhen Zhongge Biological Technology Co., Ltd., priority 2023, dated 2025).

Experiments:
IRAK4 [1] = target: T1, IRAK4 (Homo sapiens, UniProt Q9NWZ3); test: WB detection of proteolysis (Western Blot, THP-1 cells); format: cell-based; settings: Western Blot, THP-1 cells, 24 h
T1 sequence (Q9NWZ3 1-460): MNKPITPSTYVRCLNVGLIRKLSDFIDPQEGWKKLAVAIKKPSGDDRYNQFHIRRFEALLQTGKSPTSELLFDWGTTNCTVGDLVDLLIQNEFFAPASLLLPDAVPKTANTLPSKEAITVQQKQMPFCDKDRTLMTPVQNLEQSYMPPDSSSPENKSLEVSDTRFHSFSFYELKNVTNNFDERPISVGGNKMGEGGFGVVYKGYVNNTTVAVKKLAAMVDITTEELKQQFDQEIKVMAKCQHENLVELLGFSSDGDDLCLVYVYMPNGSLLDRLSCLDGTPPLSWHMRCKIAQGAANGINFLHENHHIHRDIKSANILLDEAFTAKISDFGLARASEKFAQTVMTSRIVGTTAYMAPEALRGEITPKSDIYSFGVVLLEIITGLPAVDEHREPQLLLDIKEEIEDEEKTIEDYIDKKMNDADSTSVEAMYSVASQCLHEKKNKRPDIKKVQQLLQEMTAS
Method in brief: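 IRAK4 level in RIPA lysates read by Western blot with Odyssey imaging; values from bell-shaped non-linear fit with two four-parameter sections (Plateau1, Plateau2, Dip, LogEC50_1/2, nH1/2).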

IRAK4 [2] = target: T1, IRAK4; test: Hibit fluorescence detection of proteolysis (IRAK4-HiBiT in HEK293T cells); format: cell-based; set-up: host or cells: HEK293T (ATCC)
Method in brief: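 Degradation read-out: luminescence from lytic HiBiT detection (15 min, room temperature) after 24 h compound exposure (37 °C, 5% CO2) of HEK293T cells transiently expressing IRAK4 fused to a HiBiT tag. Data fitted to a bell-shaped four-parameter model giving two EC50 values.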

`Cn1c(=O)n(C2CCC(=O)NC2=O)c2cccc(N3CCC(N4CCN(C[C@H]5CC[C@H](n6cc(-n7cc(-c8cnn9ccc(N%10CCC[C@H](O)C%10)nc89)nn7)c(C(F)F)n6)CC5)CC4)CC3)c21` (stereo partly shown) [Example 146] showed a DC50 (IRAK4 [1]; read-out: DC50) of under 10 nM, a Dmax (IRAK4 [1]; read-out: Dmax) of over 70% and a Dmax (IRAK4 [2]; HEK-293T) of over 80%. The DC50 (IRAK4 [2]; IRAK4-HiBiT, HEK293T cells, 24 h) was under 0.5 nM.
